Measured values taken from publication PMC6516726 (ACS Catalysis, 2018).
Where two headings read alike, the source gives them in different places.

Key:
[1] = biological target: L25A PETNR (Enterobacter cloacae, UniProt P71278, L26A); conditions: for kobs1 / A2 (amplitude of kobs2 out of total absorbance change) / kobs2: pH 7.0
[2] = biological target: L25I PETNR (Enterobacter cloacae, UniProt P71278, L26I); conditions: for kobs1 / A2 (amplitude of kobs2 out of total absorbance change) / kobs2: 10 mM NADPH or 25 mM NADH, pH 7.0
[3] = biological target: WT PETNR (Enterobacter cloacae, UniProt P71278); assay: Stopped-flow FMN reduction (reductive half-reaction, hydride transfer) of WT PETNR by coenzyme; conditions: for kobs1: 10 mM NADPH or 25 mM NADH, pH 7.0
[4] = 25 °C, 50 mM potassium phosphate pH 7.0, 20 μM enzyme
[5] = 25 °C, 50 mM potassium phosphate pH 7.0, 20 μM enzyme, fast phase
[6] = 25 °C, 10 mM NADPH or 25 mM NADH
[7] = 30 °C, 10 mM NADPH or 25 mM NADH
[8] = 35 °C, 10 mM NADPH or 25 mM NADH
[9] = 40 °C, third phase, 10 mM NADPH or 25 mM NADH
[10] = 40 °C, 10 mM NADPH or 25 mM NADH
[11] = T0 = 298 K, fit of kobs1 (5–40 °C) to eq 1

WT PETNR, sequence (P71278 entry or part of it): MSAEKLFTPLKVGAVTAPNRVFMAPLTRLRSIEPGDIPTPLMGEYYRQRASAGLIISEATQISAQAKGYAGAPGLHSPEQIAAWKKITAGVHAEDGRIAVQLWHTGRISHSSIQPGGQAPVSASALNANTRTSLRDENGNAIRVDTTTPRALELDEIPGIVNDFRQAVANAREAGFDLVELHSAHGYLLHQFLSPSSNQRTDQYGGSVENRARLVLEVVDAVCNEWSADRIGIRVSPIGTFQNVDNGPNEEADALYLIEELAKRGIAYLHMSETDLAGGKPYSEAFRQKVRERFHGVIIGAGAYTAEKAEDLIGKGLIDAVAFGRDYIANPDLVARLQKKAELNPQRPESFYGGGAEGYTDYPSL
L25A PETNR, sequence (P71278 entry or part of it L26A): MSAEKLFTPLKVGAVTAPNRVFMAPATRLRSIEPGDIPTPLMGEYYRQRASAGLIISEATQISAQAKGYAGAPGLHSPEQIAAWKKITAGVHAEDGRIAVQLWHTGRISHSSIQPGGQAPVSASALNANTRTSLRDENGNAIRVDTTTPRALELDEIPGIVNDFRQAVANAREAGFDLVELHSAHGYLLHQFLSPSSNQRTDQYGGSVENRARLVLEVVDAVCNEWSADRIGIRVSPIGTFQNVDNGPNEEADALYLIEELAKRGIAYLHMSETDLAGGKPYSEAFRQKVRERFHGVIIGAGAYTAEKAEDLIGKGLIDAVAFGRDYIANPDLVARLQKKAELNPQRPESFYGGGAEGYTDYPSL
L25I PETNR, sequence (P71278 entry or part of it L26I): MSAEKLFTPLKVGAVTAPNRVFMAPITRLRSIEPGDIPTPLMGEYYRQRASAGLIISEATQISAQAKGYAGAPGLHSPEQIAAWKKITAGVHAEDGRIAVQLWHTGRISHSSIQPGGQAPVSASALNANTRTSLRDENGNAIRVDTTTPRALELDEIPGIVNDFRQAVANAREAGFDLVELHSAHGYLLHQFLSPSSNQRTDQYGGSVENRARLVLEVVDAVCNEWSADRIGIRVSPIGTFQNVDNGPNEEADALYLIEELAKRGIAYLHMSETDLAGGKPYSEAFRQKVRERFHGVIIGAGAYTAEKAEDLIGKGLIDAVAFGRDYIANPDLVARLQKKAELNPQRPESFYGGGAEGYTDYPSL

With NC(=O)C1=CN([C@@H]2O[C@H](COP(=O)(O)OP(=O)(O)OC[C@H]3O[C@@H](n4cnc5c(N)ncnc54)[C@H](O)[C@@H]3O)[C@@H](O)[C@H]2O)C=CC1 [NADH] the kobs1 ([1]; 5 °C, 10 mM NADPH or 25 mM NADH) was 1.27 ± 0.01 s⁻¹, the kobs1 ([1]; 10 °C, 10 mM NADPH or 25 mM NADH) was 1.61 ± 0.01 s⁻¹ and the kobs1 ([1]; 15 °C, 10 mM NADPH or 25 mM NADH) was 2.03 ± 0.01 s⁻¹. The kobs1 ([1]; 20 °C, 10 mM NADPH or 25 mM NADH) was 2.63 ± 0.03 s⁻¹, the KS [1, 4] was 2294 ± 91 µM and the kred [1, 5] was 3.62 ± 0.04 s^–1. For the same compound, the “A2 (amplitude of kobs2 out of total absorbance change)” value [1, 6] was 2.29 ± 0.92%, the kobs1 [1, 6] was 3.33 ± 0.07 s⁻¹ and the kobs2 [1, 6] was 0.09 ± 0.06 s⁻¹. For the same compound, the “A2 (amplitude of kobs2 out of total absorbance change)” value [1, 7] was 4.93 ± 0.85%, the kobs1 [1, 7] was 4.23 ± 0.06 s⁻¹ and the kobs2 [1, 7] was 0.08 ± 0.01 s⁻¹. For the same compound, the “A2 (amplitude of kobs2 out of total absorbance change)” value [1, 8] was 12.72 ± 0.74%, the kobs1 [1, 8] was 5.20 ± 0.11 s⁻¹ and the kobs2 [1, 8] was 0.11 ± 0.01 s⁻¹. The “A3 (amplitude of third phase)” value [1, 9] was 19.01 ± 3.17%, the kobs3 [1, 9] was 1.10 ± 0.0 and the “A2 (amplitude of kobs2 out of total absorbance change)” value [1, 10] was 20.40 ± 1.48%. For the same compound, the kobs1 [1, 10] was 6.74 ± 0.37 s⁻¹, the kobs2 [1, 10] was 0.13 ± 0.01 s⁻¹ and the “ΔCp^⧧” value [1, 11] was 0.28 ± 0.05 kJ mol^–1 K^–1. For the same compound, the “ΔHT0^⧧” value [1, 11] was 33.6 ± 0.5 kJ mol^–1, the “ΔST0^⧧” value [1, 11] was “–122.1 ± 1.7 J mol^–1 K^–1” and the kobs1 ([2]; 5 °C) was 0.49 ± 0.01 s⁻¹. The kobs1 ([2]; 10 °C) was 0.66 ± 0.01 s⁻¹, the kobs1 ([2]; 15 °C) was 0.90 ± 0.01 s⁻¹ and the kobs1 ([2]; 20 °C) was 1.20 ± 0.01 s⁻¹. The KS [2, 4] was 306 ± 40 µM, the kred [2, 5] was 1.74 ± 0.04 s^–1 and the “A2 (amplitude of kobs2 out of total absorbance change)” value ([2]; 25 °C) was 6.40 ± 2.07%. For the same compound, the kobs1 ([2]; 25 °C) was 1.77 ± 0.06 s⁻¹, the kobs2 ([2]; 25 °C) was 0.36 ± 0.10 s⁻¹ and the “A2 (amplitude of kobs2 out of total absorbance change)” value ([2]; 30 °C) was 6.86 ± 1.61%. For the same compound, the kobs1 ([2]; 30 °C) was 2.39 ± 0.06 s⁻¹, the kobs2 ([2]; 30 °C) was 0.39 ± 0.09 s⁻¹ and the “A2 (amplitude of kobs2 out of total absorbance change)” value ([2]; 35 °C) was 8.92 ± 1.01%. The kobs1 ([2]; 35 °C) was 3.26 ± 0.07 s⁻¹, the kobs2 ([2]; 35 °C) was 0.49 ± 0.07 s⁻¹ and the “A2 (amplitude of kobs2 out of total absorbance change)” value ([2]; 40 °C) was 12.28 ± 1.93%. For the same compound, the kobs1 ([2]; 40 °C) was 4.26 ± 0.13 s⁻¹, the kobs2 ([2]; 40 °C) was 0.58 ± 0.05 s⁻¹ and the “ΔCp^⧧” value [2, 11] was 0.32 ± 0.18 kJ mol^–1 K^–1. For the same compound, the “ΔHT0^⧧” value [2, 11] was 42.7 ± 1.7 kJ mol^–1, the “ΔST0^⧧” value [2, 11] was “–97.7 ± 6.0 J mol^–1 K^–1” and the kobs1 ([3]; 5 °C) was 0.73 ± 0.01 s⁻¹. For the same compound, the kobs1 ([3]; 10 °C) was 0.92 ± 0.01 s⁻¹, the kobs1 ([3]; 15 °C) was 1.17 ± 0.01 s⁻¹ and the kobs1 ([3]; 20 °C) was 1.51 ± 0.01 s⁻¹. The KS [3, 4] was 1067 ± 13 µM, the kred [3, 5] was 2.03 ± 0.01 s^–1 and the kobs1 ([3]; 25 °C) was 1.95 ± 0.01 s⁻¹. The kobs1 ([3]; 30 °C) was 2.53 ± 0.02 s⁻¹, the kobs1 ([3]; 35 °C) was 3.30 ± 0.01 s⁻¹ and the kobs1 ([3]; 40 °C) was 4.25 ± 0.02 s⁻¹. For the same compound, the “ΔCp^⧧” value [3, 11] was 0.39 ± 0.03 kJ mol^–1 K^–1, the “ΔHT0^⧧” value [3, 11] was 35.4 ± 0.1 kJ mol^–1 and the “ΔST0^⧧” value [3, 11] was “–120.5 ± 0.5 J mol^–1 K^–1”.
